Laboratory results reported in ChEMBL document CHEMBL5532661, “Discovery of a Novel Glucagon-like Peptide-1 (GLP-1) Analogue from Bullfrog and Investigation of Its Potential for Designing GLP-1-Based Multiagonists” (J Med Chem, 2024).
Activity calls are given as the source filed them. No cut-off for these calls is given here.

Columns and labels:
Mus musculus [1] = assay: Hypoglycemic effect in ICR mouse treated with 3 g/kg glucose assessed as reduction in blood glucose level at 100 nmol/kg, sc measured upto 120 mins by acute glucose lowering test; format: functional, organism-based
Mus musculus [2] = assay: Hypoglycemic effect in ICR mouse treated with 3 g/kg glucose assessed as reduction in blood glucose level at 30 nmol/kg, sc measured upto 120 mins pretreated with GLP-1R antagonist by OGTT; format: functional, organism-based
Mus musculus [3] = assay: Anorexigenic effect in ICR mouse assessed as decrease in food intake at 30 nmol/kg, sc measured upto 72 hrs by acute food intake study; format: functional, organism-based
Mus musculus [4] = assay: Antihyperglycemic effect in DIO mouse assessed as antihyperglycemic duration by measuring blood glucose at 30 nmol/kg, sc administered twice daily measured by hypoglycemic duration assay; format: functional, organism-based
Mus musculus [5] = assay: Reduction in body weight in DIO mouse at 30 nmol/kg, sc treated every 2 and half day once measured after 21 days; format: functional; set-up: scale not given: the % may be the effect or the level left
Mus musculus [6] = assay: Reduction in serum AST in DIO mouse at 30 nmol/kg, sc treated every 2 and half day once measured after 21 days; format: functional, organism-based; details: time 21.0 day
Mus musculus [7] = assay: Reduction in serum ALT in DIO mouse at 30 nmol/kg, sc treated every 2 and half day once measured after 21 days; format: functional, organism-based; details: time 21.0 day
[8] = molecular target: Glucagon-like peptide 1 receptor (Homo sapiens, UniProt P43220); assay: Agonist activity at human GLP-1 receptor expressed in HEK293 cells assessed as cAMP level measured after 60 mins by HTRF based assay; format: functional, cell-based
Glucagon-like peptide 1 receptor, sequence (P43220 whole entry): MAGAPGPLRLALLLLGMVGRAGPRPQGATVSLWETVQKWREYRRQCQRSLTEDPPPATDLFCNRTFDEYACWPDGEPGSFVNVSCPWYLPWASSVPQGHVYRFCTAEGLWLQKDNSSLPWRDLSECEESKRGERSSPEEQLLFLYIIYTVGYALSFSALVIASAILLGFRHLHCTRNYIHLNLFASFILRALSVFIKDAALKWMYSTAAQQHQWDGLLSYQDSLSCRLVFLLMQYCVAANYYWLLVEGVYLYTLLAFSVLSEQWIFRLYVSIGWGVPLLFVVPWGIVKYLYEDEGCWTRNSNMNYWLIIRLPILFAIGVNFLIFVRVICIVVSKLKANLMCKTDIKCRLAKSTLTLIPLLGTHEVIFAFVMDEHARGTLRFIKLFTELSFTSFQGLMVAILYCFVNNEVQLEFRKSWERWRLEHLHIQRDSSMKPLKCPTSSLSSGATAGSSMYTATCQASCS

Glucagon receptor = Glucagon receptor (Homo sapiens, UniProt P47871); assay: Agonist activity at human GCGR expressed in HEK293 cells assessed as cAMP level measured after 60 mins by HTRF based assay; format: functional, cell-based
Glucagon receptor, sequence (P47871 whole entry): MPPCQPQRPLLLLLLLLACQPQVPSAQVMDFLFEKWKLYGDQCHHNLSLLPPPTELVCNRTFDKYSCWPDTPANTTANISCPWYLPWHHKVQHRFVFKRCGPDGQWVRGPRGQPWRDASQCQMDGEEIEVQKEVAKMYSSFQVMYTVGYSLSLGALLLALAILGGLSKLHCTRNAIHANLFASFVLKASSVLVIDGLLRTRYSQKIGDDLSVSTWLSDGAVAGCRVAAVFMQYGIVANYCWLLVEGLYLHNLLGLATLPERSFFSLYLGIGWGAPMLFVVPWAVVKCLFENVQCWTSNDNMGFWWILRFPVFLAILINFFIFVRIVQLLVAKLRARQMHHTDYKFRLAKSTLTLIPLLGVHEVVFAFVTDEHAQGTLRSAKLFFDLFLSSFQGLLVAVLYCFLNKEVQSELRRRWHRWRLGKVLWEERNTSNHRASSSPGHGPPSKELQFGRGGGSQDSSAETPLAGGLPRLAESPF

[9] = molecular target: T1, Gastric inhibitory polypeptide receptor (Homo sapiens, UniProt P48546); assay: Agonist activity at human GIPR receptor expressed in HEK293 cells assessed as cAMP level measured after 60 mins by HTRF based assay; format: functional, cell-based
T1 sequence (P48546 whole entry): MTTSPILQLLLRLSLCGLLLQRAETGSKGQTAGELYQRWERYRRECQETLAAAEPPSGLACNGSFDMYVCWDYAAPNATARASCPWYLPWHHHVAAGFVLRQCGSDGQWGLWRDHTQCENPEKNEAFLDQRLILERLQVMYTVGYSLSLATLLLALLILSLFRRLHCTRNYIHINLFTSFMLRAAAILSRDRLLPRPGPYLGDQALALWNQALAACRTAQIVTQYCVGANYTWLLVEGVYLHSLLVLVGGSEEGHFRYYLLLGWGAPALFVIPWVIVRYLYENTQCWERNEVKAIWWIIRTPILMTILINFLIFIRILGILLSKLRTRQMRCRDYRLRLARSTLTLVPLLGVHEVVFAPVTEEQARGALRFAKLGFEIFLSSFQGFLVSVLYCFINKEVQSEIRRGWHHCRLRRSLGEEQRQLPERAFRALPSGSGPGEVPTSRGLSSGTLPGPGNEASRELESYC

Mus musculus [10] = assay: Hypoglycemic effect in ICR mouse treated with 3 g/kg glucose assessed as reduction in blood glucose level at 30 nmol/kg, sc measured upto 120 mins pretreated with GLP-1R and GIPR antagonist by OGTT; format: functional, organism-based
Mus musculus [11] = assay: Anorexigenic effect in ICR mouse assessed as decrease in food intake at 30 nmol/kg, sc measured at 48 hrs by acute food intake study; format: functional, organism-based
Mus musculus [12] = assay: Reduction in feed intake in DIO mouse at 30 nmol/kg, sc treated twice a day measured after 21 days; format: functional, organism-based; details: time 21.0 day

Compound: SEMAGLUTIDE
- Activity (Mus musculus [1]): Active
- Activity (Mus musculus [2]): inactive
- Activity (Mus musculus [3]): Active
- Activity (Mus musculus [4]): Active
- Activity (Mus musculus [5]; time 21.0 day): 18.6%
- Activity (Mus musculus [6]): Active
- Activity (Mus musculus [7]): Active

Compound: CC[C@H](C)[C@H](NC(=O)[C@H](Cc1ccccc1)NC(=O)[C@H](C)NC(=O)C(C)(C)NC(=O)[C@H](CCC(N)=O)NC(=O)[C@H](C)NC(=O)[C@H](CCCCNC(=O)COCCOCCNC(=O)CC[C@H](NC(=O)CCCCCCCCCCCCCCCCCCC(=O)O)C(=O)O)NC(=O)[C@H](CCCCN)NC(=O)[C@H](CC(=O)O)NC(=O)[C@H](CC(C)C)NC(=O)[C@](C)(CC(C)C)NC(=O)[C@@H](NC(=O)[C@H](CO)NC(=O)[C@H](Cc1ccc(O)cc1)NC(=O)[C@H](CC(=O)O)NC(=O)[C@H](CO)NC(=O)[C@@H](NC(=O)[C@H](Cc1ccccc1)NC(=O)[C@@H](NC(=O)CNC(=O)[C@H](CCC(N)=O)NC(=O)C(C)(C)NC(=O)[C@@H](N)Cc1ccc(O)cc1)[C@@H](C)O)[C@@H](C)O)[C@@H](C)CC)C(=O)N[C@@H](CCC(=O)O)C(=O)N[C@@H](Cc1ccc(O)cc1)C(=O)N[C@@H](CC(C)C)C(=O)N[C@@H](CC(C)C)C(=O)N[C@@H](CCC(=O)O)C(=O)NCC(=O)NCC(=O)N1CCC[C@H]1C(=O)N[C@@H](CO)C(=O)N[C@@H](CO)C(=O)NCC(=O)N[C@@H](C)C(=O)N1CCC[C@H]1C(=O)N1CCC[C@H]1C(=O)N1CCC[C@H]1C(=O)N[C@@H](CO)C(N)=O
- EC50 [8]: 0.041 nM
- EC50 (Glucagon receptor): 0.23 nM
- EC50 [9]: 0.022 nM
- Activity (Mus musculus [1]): Active
- Activity (Mus musculus [10]): inactive
- Activity (Mus musculus [3]): Active
- Activity (Mus musculus [11]): Active
- Activity (Mus musculus [4]): Active
- Activity (Mus musculus [5]; time 21 day): 38.5%
- Activity (Mus musculus [12]): Active
- Activity (Mus musculus [6]): Active
- Activity (Mus musculus [7]): Active
